Source: US7101878B1 (Agouron Pharmaceuticals, Inc., priority 1998, dated 2006)

Molecular target: T1, mouse GnRH receptor (Mus musculus, UniProt Q01776)
T1 construct: expressed in transfected cells; host or cells: 293 cells
T1 sequence (Q01776 1-327): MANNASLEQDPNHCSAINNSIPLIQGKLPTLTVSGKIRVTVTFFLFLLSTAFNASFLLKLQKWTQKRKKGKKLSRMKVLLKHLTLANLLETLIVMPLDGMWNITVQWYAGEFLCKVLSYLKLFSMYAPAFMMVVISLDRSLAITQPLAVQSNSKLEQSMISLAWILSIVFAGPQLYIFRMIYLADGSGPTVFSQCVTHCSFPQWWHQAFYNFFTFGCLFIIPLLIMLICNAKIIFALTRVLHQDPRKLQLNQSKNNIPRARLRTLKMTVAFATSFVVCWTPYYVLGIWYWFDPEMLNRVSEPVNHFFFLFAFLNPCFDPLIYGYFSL
Assay: Radioligand binding, 125I-GnRH-A, 293 cells expressing mouse GnRH receptors
Details: for remaining activity at 10 µM: 1 h, substrate remaining, 10 uM compound, closer to zero = closer to 100% inhibition, read-out: S%R 10 uM mGnRHR; for inhibition at 10 µM: read-out: % Inhib. @ 10 uM mGnRH
Procedure: All compounds were diluted in 1% DMSO (final assay concentration) in binding assay buffer. […] Reactions were terminated by rapid filtration onto 96-well Packard GF/C filters soaked in 0.1% polyethyleneimine. Filters were washed three times with PBS buffer, dried and counted on a Packard Topcount by liquid scintillation counting.
Assay conditions were identical for assessing compound activities at other species. […] IC50 values for control peptides and test compounds were calculated utilizing GraphPad Prism™ software.
The reaction mixture was vortexed and incubated for 1 min at room temperature. After one min, the mixture was vortexed and allowed to incubate for an additional minute. 2 ml of 0.5 M acetic acid/1% BSA was added to the reaction tube and the mixture was added to a C18 Sep-Pak cartridge. The cartridge was washed with subsequent washes of 5 ml H2O and 5 ml 0.5M acetic acid and then eluted with 5×1 ml of 60% CH3CN/40% 0.5M acetic acid. The eluate was diluted with 3× volume of HPLC buffer A (0.1% TFA in H2O) and loaded onto a C18 column. […] The radioactive fractions (750 ed/fraction) are collected into clean polypropylene tubes containing 100 μl of 10% BSA. Fractions were assessed for biological activity by radioligand binding.

CCN1CC(N(CCC(C)c2ccccc2)C(=O)c2ccc(Cc3cc4c(cc3C)C(C)(C)CCC4(C)C)o2)CN1CC (centres unmarked) [Compound 668]
remaining activity at 10 µM: 6%

Cc1cc2c(cc1Cc1ccc(C(=O)NCCCN(C)CCCN)o1)C(C)(C)CCC2(C)C [Compound 496]
remaining activity at 10 µM: -6%

Cc1cc2c(cc1Cc1ccc(C(=O)NCC[N+](C)(C)C)o1)C(C)(C)CCC2(C)C
inhibition at 10 µM: 49%

Cc1cc2c(cc1Cc1ccc(C(=O)NC(C)CN(C)C)o1)C(C)(C)CCC2(C)C (centres unmarked) [Compound 625]
remaining activity at 10 µM: 8%

Cc1cc2c(cc1Cc1ccc(C(=O)N(CC(C)C)CC(C)C)o1)C(C)(C)CCC2(C)C [Compound 584]
remaining activity at 10 µM: 15%

CCCN(Cc1ccc([N+](=O)[O-])cc1)C(=O)c1ccc(Cc2cc3c(cc2C)C(C)(C)CCC3(C)C)o1 [drawing 1480]
inhibition at 10 µM: 66%

Cc1cc2c(cc1Cc1ccc(C(=O)NC3CCCCC3Nc3ccnc(NCC4CCCO4)n3)o1)C(C)(C)CCC2(C)C (centres unmarked) [Compound 481]
remaining activity at 10 µM: 5%

Cc1cc2c(cc1Cc1ccc(C(=O)N3CCN(C(=O)c4ccco4)CC3)o1)C(C)(C)CCC2(C)C [Compound 694]
remaining activity at 10 µM: 11%

COc1ccccc1CN(C(=O)c1ccc(Cc2cc3c(cc2C)C(C)(C)CCC3(C)C)o1)C1CCN(Cc2ccccc2)C1 (centres unmarked) [drawing 1558]
inhibition at 10 µM: 91%

COC(CN(C)C(=O)c1ccc(Cc2cc3c(cc2C)C(C)(C)CCC3(C)C)o1)OC [drawing 1549]
inhibition at 10 µM: 90%

Cc1cc2c(cc1Cc1ccc(C(=O)NCCCN(C)c3ccccc3)o1)C(C)(C)CCC2(C)C [Compound 462]
remaining activity at 10 µM: 0%

Cc1cc2c(cc1Cc1ccc(C(=O)NCCCO)o1)C(C)(C)CCC2(C)C [Compound 531]
remaining activity at 10 µM: 4%

Cc1cc2c(cc1Cc1ccc(C(=O)NCC(C)(C)CN(C)C)o1)C(C)(C)CCC2(C)C [Compound 620]
remaining activity at 10 µM: 3%

COc1cc(CN(Cc2ccncc2)C(=O)c2ccc(Cc3cc4c(cc3C)C(C)(C)CCC4(C)C)o2)ccc1OCc1ccccc1
inhibition at 10 µM: 64%

COC(OC)C(C)NC(=O)c1ccc(Cc2cc3c(cc2C)C(C)(C)CCC3(C)C)o1 (centres unmarked) [drawing 1589]
inhibition at 10 µM: 97%

Cc1cc2c(cc1Cc1ccc(C(=O)N3CCN(CCOCCO)CC3)o1)C(C)(C)CCC2(C)C [Compound 686]
remaining activity at 10 µM: 37%

CSCCC(CO)NC(=O)c1ccc(Cc2cc3c(cc2C)C(C)(C)CCC3(C)C)o1 (centres unmarked) [Compound 675]
remaining activity at 10 µM: -5%

COc1ccc(CCNC(=O)c2ccc(Cc3cc4c(cc3C)C(C)(C)CCC4(C)C)o2)cc1Br [drawing 1532]
inhibition at 10 µM: 78%

Cc1cc2c(cc1Cc1ccc(C(=O)N(Cc3ccccc3)Cc3ccccn3)o1)C(C)(C)CCC2(C)C
inhibition at 10 µM: 98%

Cc1cc2c(cc1Cc1ccc(C(=O)NC(C)C3CCCCC3)o1)C(C)(C)CCC2(C)C (centres unmarked) [drawing 1463]
inhibition at 10 µM: 72%

Cc1cc2c(cc1Cc1ccc(C(=O)N3CCCC3C(O)(c3ccccc3)c3ccccc3)o1)C(C)(C)CCC2(C)C (centres unmarked)
inhibition at 10 µM: 31%

Cc1cc2c(cc1Cc1ccc(C(=O)N(C)CCCN(C)C)o1)C(C)(C)CCC2(C)C [drawing 1516]
inhibition at 10 µM: 92%

CCCCC(CC)COCCCNC(=O)c1ccc(Cc2cc3c(cc2C)C(C)(C)CCC3(C)C)o1 (centres unmarked)
inhibition at 10 µM: 58%

Cc1cc2c(cc1Cc1ccc(C(=O)N(CCCN(C)C)CCCN(C)C)o1)C(C)(C)CCC2(C)C [Compound 700]
remaining activity at 10 µM: 30%

Cc1cc2c(cc1Cc1ccc(C(=O)N(Cc3ccccc3)C(C)C)o1)C(C)(C)CCC2(C)C [Compound 629]
remaining activity at 10 µM: 17%

C=CCN(CC=C)C(=O)c1ccc(Cc2cc3c(cc2C)C(C)(C)CCC3(C)C)o1 [Compound 538]
remaining activity at 10 µM: 17%

Cc1cc2c(cc1Cc1ccc(C(=O)NCC(O)c3ccccc3)o1)C(C)(C)CCC2(C)C (centres unmarked) [Compound 596]
remaining activity at 10 µM: -1%

COc1cc2c(cc1OC)C(CC#N)N(C(=O)c1ccc(Cc3cc4c(cc3C)C(C)(C)CCC4(C)C)o1)CC2 (centres unmarked) [drawing 1582]
inhibition at 10 µM: 52%

Cc1cc2c(cc1Cc1ccc(C(=O)N(Cc3ccoc3)C3CCN(Cc4ccccc4)C3)o1)C(C)(C)CCC2(C)C (centres unmarked) [Compound 618]
remaining activity at 10 µM: 9%

Cc1cc2c(cc1Cc1ccc(C(=O)N3CCCC(C(=O)NC(c4ccccc4)c4ccccc4)C3)o1)C(C)(C)CCC2(C)C (centres unmarked)
inhibition at 10 µM: 9%

COc1cccc(N2CCN(C(=O)c3ccc(Cc4cc5c(cc4C)C(C)(C)CCC5(C)C)o3)CC2C)c1 (centres unmarked) [drawing 1513]
inhibition at 10 µM: 76%

Cc1cc2c(cc1Cc1ccc(C(=O)NCCc3ccc(Oc4ccccc4)cc3)o1)C(C)(C)CCC2(C)C [drawing 1529]
inhibition at 10 µM: 57%

CCOC(=O)N1CCN(C(=O)c2ccc(Cc3cc4c(cc3C)C(C)(C)CCC4(C)C)o2)CC1 [drawing 1530]
inhibition at 10 µM: 65%

CCN(CC)CCN1CCN(C(=O)c2ccc(Cc3cc4c(cc3C)C(C)(C)CCC4(C)C)o2)CC1
inhibition at 10 µM: 98%

Cc1cc2c(cc1Cc1ccc(C(=O)N3CCC4(CC3)C(=O)NCN4c3ccccc3)o1)C(C)(C)CCC2(C)C [Compound 649]
remaining activity at 10 µM: 28%

Cc1cc2c(cc1Cc1ccc(C(=O)N(CC#N)CC#N)o1)C(C)(C)CCC2(C)C
inhibition at 10 µM: 64%

Cc1cc2c(cc1Cc1ccc(C(=O)NCCc3ccncc3)o1)C(C)(C)CCC2(C)C [Compound 485]
remaining activity at 10 µM: -5%

COc1cc2c(cc1OC)CN(C(=O)c1ccc(Cc3cc4c(cc3C)C(C)(C)CCC4(C)C)o1)CC2 [Compound 693]
remaining activity at 10 µM: 55%

CSCCNC(=O)c1ccc(Cc2cc3c(cc2C)C(C)(C)CCC3(C)C)o1 [drawing 1587]
inhibition at 10 µM: 97%

Cc1cc2c(cc1Cc1ccc(C(=O)NCCn3c([N+](=O)[O-])cnc3C)o1)C(C)(C)CCC2(C)C [drawing 1486]
inhibition at 10 µM: 42%

Cc1cc2c(cc1Cc1ccc(C(=O)NCc3ccc(F)cc3)o1)C(C)(C)CCC2(C)C [Compound 604]
remaining activity at 10 µM: 4%

C=C(C)CNC(=O)c1ccc(Cc2cc3c(cc2C)C(C)(C)CCC3(C)C)o1 [Compound 624]
remaining activity at 10 µM: 8%

CCN1CC(NC(=O)c2ccc(Cc3cc4c(cc3C)C(C)(C)CCC4(C)C)o2)CN1CC
inhibition at 10 µM: 91%

CCOC(CN(CCc1ccccc1)C(=O)c1ccc(Cc2cc3c(cc2C)C(C)(C)CCC3(C)C)o1)OCC [Compound 689]
remaining activity at 10 µM: 34%

Cc1cc2c(cc1Cc1ccc(C(=O)N(CCC(c3ccccc3)c3ccccc3)C(C)c3ccccc3)o1)C(C)(C)CCC2(C)C (centres unmarked)
inhibition at 10 µM: 30%

COc1ccccc1C1CCN(C(=O)c2ccc(Cc3cc4c(cc3C)C(C)(C)CCC4(C)C)o2)CC1
inhibition at 10 µM: 63%

Cc1cc2c(cc1Cc1ccc(C(=O)N3CCC[C@@H]3C(=O)NC(c3ccccc3)c3ccccc3)o1)C(C)(C)CCC2(C)C
inhibition at 10 µM: 58%

Cc1cc2c(cc1Cc1ccc(C(=O)N3CCN(CCN4CCOCC4)CC3)o1)C(C)(C)CCC2(C)C
inhibition at 10 µM: 73%

Cc1cc2c(cc1Cc1ccc(C(=O)N[C@H](C)c3ccccc3)o1)C(C)(C)CCC2(C)C
inhibition at 10 µM: 72%

Cc1cc2c(cc1Cc1ccc(C(=O)N3CCC(CCCC4CCN(CCO)CC4)CC3)o1)C(C)(C)CCC2(C)C [drawing 1427]
inhibition at 10 µM: 104%

Cc1cc2c(cc1Cc1ccc(C(=O)NC[C@@H]3CCCC[C@H]3O)o1)C(C)(C)CCC2(C)C [drawing 1466]
inhibition at 10 µM: 97%

CCN(CC)CCN(C)C(=O)c1ccc(Cc2cc3c(cc2C)C(C)(C)CCC3(C)C)o1 [drawing 1428]
inhibition at 10 µM: 68%

Cc1cc2c(cc1Cc1ccc(C(=O)NCCS)o1)C(C)(C)CCC2(C)C [Compound 609]
remaining activity at 10 µM: 47%

Cc1cc2c(cc1Cc1ccc(C(=O)N3CCN(Cc4ccc5c(c4)OCO5)CC3)o1)C(C)(C)CCC2(C)C
inhibition at 10 µM: 66%

Cc1cc2c(cc1Cc1ccc(C(=O)N(C)CCC#N)o1)C(C)(C)CCC2(C)C [drawing 1531]
inhibition at 10 µM: 83%

Cc1cc2c(cc1Cc1ccc(C(=O)N3C[C@H]4CCCC[C@H]4CC3C(=O)NC(C)(C)C)o1)C(C)(C)CCC2(C)C (some centres unmarked) [drawing 1502]
inhibition at 10 µM: 52%

CCN(CC)CCNC(=O)c1ccc(Cc2cc3c(cc2C)C(C)(C)CCC3(C)C)o1 [Compound 615]
remaining activity at 10 µM: 7%

Cc1cc2c(cc1Cc1ccc(C(=O)N3CCN(C4Nc5ccccc5Oc5ccc(Cl)cc54)CC3)o1)C(C)(C)CCC2(C)C (centres unmarked)
inhibition at 10 µM: 5%

Cc1cc2c(cc1Cc1ccc(C(=O)NC(C)(C)C(=O)OC(C)(C)C)o1)C(C)(C)CCC2(C)C
inhibition at 10 µM: 75%

Cc1cc2c(cc1Cc1ccc(C(=O)N3CCC(O)(c4ccc(Br)cc4)CC3)o1)C(C)(C)CCC2(C)C [Compound 656]
remaining activity at 10 µM: 52%

Cc1cc2c(cc1Cc1ccc(C(=O)N(Cc3ccccc3)Cc3ccc(Cl)c(Cl)c3)o1)C(C)(C)CCC2(C)C [Compound 696]
remaining activity at 10 µM: 21%

Cc1cc2c(cc1Cc1ccc(C(=O)N(Cc3ccc(C(C)C)cc3)Cc3cccnc3)o1)C(C)(C)CCC2(C)C [Compound 547]
remaining activity at 10 µM: 24%
